From patent US20140377216A1, “ANTICANCER FUSION PROTEIN” (ADAMED SP. Z.O.O., priority 2011, published 2014) come the findings set out here.

The subject of the test is human liver cancer HepG2. In words: Liver cancer model, Experiment A: HepG2 xenograft. Type of test: in vivo, Crl:SHO-PrkdcscidHrhr mice. The settings on record: 50 mg/kg i.v. six times every second day, 42th day. Here is the method: Tumor size was measured using electronic calliper, tumor volume was calculated using the formula: (a^2×b)/2, where a=shorter diagonal of the tumor (mm) and b=longer diagonal of the tumor (mm). Inhibition of tumor growth was calculated using the formula:
TGI[%](Tumor growth inhibition)=(WT/WC)×100−100%
wherein WT is the average tumor volume in the treatment group, and WC is the average tumor volume in the control group.
On day 0 Crl:SHO-Prkdc^scidHr^hr mice were grafted subcutaneously (s.c.) in the right flank region with 7×10^6 of HepG2 cells suspended in 0.1 ml of the 3:1 mixture HBSS buffer:Matrigel using syringe with a 0.5×25 mm needle (Bogmark). When tumors reached the size of 64-529 mm^3 (day 25), mice were randomized to obtain the average size of tumors in the group of −230 mm^3 and assigned to treatment groups. The treatment groups were administered with the preparations of fusion protein of the invention of Ex. 16^b (80 mg/kg) and rhTRAIL114-281 (50 mg/kg) as a comparison and reference compound 5-FU (5-Fluorouracil, Sigma-Aldrich) (20 mg/kg). The preparations were administered intravenously (i.v.) six times every second day, 5-FU was applied intraperitoneally (i.p.). The control group received formulation buffer.
When the therapeutic group reached the average tumor size of ˜1000 mm^3, mice were sacrificed by cervical dislocation.

On to “rhTRAIL114-281: recombinant human soluble TRAIL, amino acids 114-281 of hTRAIL, used as comparative reference”, for which the “TGI (tumor growth inhibition) relative to the control” value is on record as 23.2%.
